The source of these data is PMC9501548, “Synthesis of Potential Antiviral Agents for SARS-CoV-2 Using Molecular Hybridization Approach” (Molecules, 2022).

In series [1] the test system is SARS-CoV-2 (hCoV-19/Egypt/NRC-03/2020). In words: Anti-SARS-CoV-2 IC50 determination in Vero-E6 cells (inhibition of virus-induced cytopathic effect, crystal violet). To be noted: for IC50: Severe acute respiratory syndrome coronavirus 2, Vero C1008, SARS-CoV-2 in Vero-E6 cells, 72 h, CPE reduction; for SI: selectivity index, ratio of CC50 relative to IC50. It is filed as cell-based.

The nature of another series: in vitro. To be noted: Chlorocebus aethiops (African green monkey).
The test system of a further series is VERO-E6 cells. Also on record: method as in PMID 34775204. To be noted: standard reference; cited from earlier work.
Series [2] deals with SARS-CoV-2 (hCoV-19/Egypt/NRC-03/2020). Also on record: method as in PMID 34775204. To be noted: standard reference, cited from earlier work.

Values joined by “and” are separate entries in the source; they are usually repeats but may differ in a detail not shown here. Equal values may be shown once. Read-outs that look alike come from different tables or passages of the source.

For the compound `O=C1C(=Cc2cn(CCCCOc3cc(C(F)(F)F)nc4ccc(F)cc34)c3ccccc23)SC(=S)N1CCc1ccccc1` (mixture of isomers) [9e, (E/Z)-5-((1-(4-((6-Fluoro-2-(trifluoromethyl)quinolin-4-yl)oxy)butyl)-1H-indol-3-yl)methylene)-3-phenethyl-2-thioxothiazolidin-4-one], the melting point is 160 to 162 °C. In addition, in series [1], the IC50 is 276 µg/mL and 424 µM; the SI is reported as 1.1. The CC50 at 24 h in the series “in vitro” is 305 µg/mL and 469 µM.

Regarding `CCN(CCO)CCCC(C)Nc1ccnc2cc(Cl)ccc12` (stereo not shown) [Hydroxychloroquine], the CC50 with VERO-E6 cells is 356 µM. Moreover, the IC50 in series [2] (anti-SARS-CoV-2) is 29.2 µM. Moreover, in series [2] (ratio of CC50 relative to IC50), the SI is listed as 12.2.

Turning to `O=C1C(=Cc2cn(CCCCCCOc3cc(C(F)(F)F)nc4ccc(Cl)cc34)c3ccccc23)SC(=S)N1CCc1ccccc1` (mixture of isomers) [9j, (E/Z)-5-((1-(6-((6-Chloro-2-(trifluoromethyl)quinolin-4-yl)oxy)hexyl)-1H-indol-3-yl)methylene)-3-phenethyl-2-thioxothiazolidin-4-one], the melting point fell in the range of 184 to 186 °C. The CC50 at 24 h in “in vitro” came to 380 µg/mL.

Compound `Cc1ccc2nc(C(F)(F)F)cc(OCCCn3cc(C=C4SC(=S)N(CCc5ccccc5)C4=O)c4ccccc43)c2c1` (mixture of isomers) [9c, (E/Z)-5-((1-(3-((6-Methyl-2-(trifluoromethyl)quinolin-4-yl)oxy)propyl)-1H-indol-3-yl)methylene)-3-phenethyl-2-thioxothiazolidin-4-one] gave a melting point of 182 to 184 °C. The CC50 at 24 h in “in vitro” was 310 µg/mL.

`O=C1C(=Cc2cn(CCCOc3cc(C(F)(F)F)nc4ccccc34)c3ccccc23)SC(=S)N1CCc1ccccc1` (mixture of isomers) [9a, (E/Z)-3-Phenethyl-2-thioxo-5-((1-(3-((2-(trifluoromethyl)quinolin-4-yl)oxy)propyl)-1H-indol-3-yl)methylene)thiazolidin-4-one]: the melting point is 185 to 187 °C. This compound had a CC50 at 24 h in the series “in vitro” of 210 µg/mL.

The compound `Cc1ccc2nc(C(F)(F)F)cc(OC/C=C/Cn3cc(C=C4SC(=S)N(CCc5ccccc5)C4=O)c4ccccc43)c2c1` (mixture of isomers) [10b, (E/Z)-5-((1-((E)-4-((6-Methyl-2-(trifluoromethyl)quinolin-4-yl)oxy)but-2-en-1-yl)-1H-indol-3-yl)methylene)-3-phenethyl-2-thioxothiazolidin-4-one] showed a melting point of 168 to 170 °C. Further, in the series “in vitro”, the CC50 at 24 h amounted to 290 µg/mL.

The compound `O=C1C(=Cc2cn(CCCCOc3cc(C(F)(F)F)nc4ccccc34)c3ccccc23)SC(=S)N1CCc1ccccc1` (mixture of isomers) [9d, (E/Z)-3-Phenethyl-2-thioxo-5-((1-(4-((2-(trifluoromethyl)quinolin-4-yl)oxy)butyl)-1H-indol-3-yl)methylene)thiazolidin-4-one] yielded a melting point of 157 to 159 °C. Moreover, in series [1], the IC50 was 257 µg/mL and 407 µM; the SI is 1.1. For the same compound, the CC50 at 24 h in the series “in vitro” is 294 µg/mL and 465 µM.

Turning to `O=C1C(=Cc2cn(C/C=C/COc3cc(C(F)(F)F)nc4ccccc34)c3ccccc23)SC(=S)N1CCc1ccccc1` (mixture of isomers) [10a, (E/Z)-3-Phenethyl-2-thioxo-5-((1-((E)-4-((2-(trifluoromethyl)quinolin-4-yl)oxy)but-2-en-1-yl)-1H-indol-3-yl)methylene)thiazolidin-4-one], the melting point lay in the range of 179 to 181 °C. Also, in “in vitro”, the CC50 at 24 h is 370 µg/mL.

Consider `O=C1C(=Cc2cn(CCCCCCOc3cc(C(F)(F)F)nc4ccccc34)c3ccccc23)SC(=S)N1CCc1ccccc1` (mixture of isomers) [9h, (E/Z)-3-Phenethyl-2-thioxo-5-((1-(6-((2-(trifluoromethyl)quinolin-4-yl)oxy)hexyl)-1H-indol-3-yl)methylene)thiazolidin-4-one], for which the melting point was 180 to 182 °C. This compound returned a CC50 at 24 h in “in vitro” of 258 µg/mL.

`Cc1ccc2nc(C(F)(F)F)cc(OCCCCCCn3cc(C=C4SC(=S)N(CCc5ccccc5)C4=O)c4ccccc43)c2c1` (mixture of isomers) [9k, (E/Z)-5-((1-(6-((6-Methyl-2-(trifluoromethyl)quinolin-4-yl)oxy)hexyl)-1H-indol-3-yl)methylene)-3-phenethyl-2-thioxothiazolidin-4-one] registered a melting point of 148 to 150 °C. In series [1], the 50% inhibitory concentration (IC50) was 160 µg/mL and 238 µM; the SI was found to be 1.3. Moreover, the CC50 at 24 h in the series “in vitro” is 201 µg/mL and 299 µM.

For the compound `O=C1C(=Cc2cn(CCCCOc3cc(C(F)(F)F)nc4ccc(Cl)cc34)c3ccccc23)SC(=S)N1CCc1ccccc1` (mixture of isomers) [9f, (E/Z)-5-((1-(4-((6-Chloro-2-(trifluoromethyl)quinolin-4-yl)oxy)butyl)-1H-indol-3-yl)methylene)-3-phenethyl-2-thioxothiazolidin-4-one], the melting point lay in the range of 181 to 183 °C. Further, in series [1], the IC50 was 109 µg/mL and 164 µM; the SI is 3.4. For the same compound, in “in vitro”, the CC50 at 24 h was 370 µg/mL and 555 µM.

Consider `Cc1ccc2nc(C(F)(F)F)cc(OCCCCn3cc(C=C4SC(=S)N(CCc5ccccc5)C4=O)c4ccccc43)c2c1` (mixture of isomers) [9g, (E/Z)-5-((1-(4-((6-Methyl-2-(trifluoromethyl)quinolin-4-yl)oxy)butyl)-1H-indol-3-yl)methylene)-3-phenethyl-2-thioxothiazolidin-4-one], for which the melting point was 175 to 177 °C. This compound registered a CC50 at 24 h in “in vitro” of 591 µg/mL.

`O=C1C(=Cc2cn(CCCCCCOc3cc(C(F)(F)F)nc4ccc(F)cc34)c3ccccc23)SC(=S)N1CCc1ccccc1` (mixture of isomers) [9i, (E/Z)-5-((1-(6-((6-Fluoro-2-(trifluoromethyl)quinolin-4-yl)oxy)hexyl)-1H-indol-3-yl)methylene)-3-phenethyl-2-thioxothiazolidin-4-one] gave a melting point of 185 to 187 °C. For the same compound, the CC50 at 24 h in the series “in vitro” is 262 µg/mL.

`O=C1C(=Cc2cn(CCCOc3cc(C(F)(F)F)nc4ccc(Cl)cc34)c3ccccc23)SC(=S)N1CCc1ccccc1` (mixture of isomers) [9b, (E/Z)-5-((1-(3-((6-Chloro-2-(trifluoromethyl)quinolin-4-yl)oxy)propyl)-1H-indol-3-yl)methylene)-3-phenethyl-2-thioxothiazolidin-4-one] yielded a melting point of 176 to 179 °C. The CC50 at 24 h in the series “in vitro” was 227 µg/mL.
